Laboratory results taken from the NIST ThermoML archive (doi:10.1016/j.jct.2006.05.008).

Assay: molar heat capacity at constant pressure
Settings: 101.33 kPa

CCC[n+]1ccn(C)c1.[Br-] [1-methyl-3-propylimidazolium bromide]
Settings	molar heat capacity at constant pressure [J/K/mol]
244.42 K, Liquid, Small (less than 1 g) adiabatic calorimetry	265
244.52 K, Crystal, Vacuum adiabatic calorimetry	198.49
244.94 K, Crystal, Vacuum adiabatic calorimetry	198.95
245.29 K, Metastable crystal, Small (less than 1 g) adiabatic calorimetry	199.04
245.35 K, Liquid, Small (less than 1 g) adiabatic calorimetry	265.6
245.89 K, Crystal, Vacuum adiabatic calorimetry	199.57
246.52 K, Liquid, Small (less than 1 g) adiabatic calorimetry	265.56
246.54 K, Liquid, Small (less than 1 g) adiabatic calorimetry	266.09
247.02 K, Crystal, Vacuum adiabatic calorimetry	200.86
247.27 K, Crystal, Vacuum adiabatic calorimetry	200.82
247.37 K, Liquid, Small (less than 1 g) adiabatic calorimetry	266.15
247.66 K, Metastable crystal, Small (less than 1 g) adiabatic calorimetry	201.1
248.62 K, Liquid, Small (less than 1 g) adiabatic calorimetry	266.07
248.65 K, Crystal, Vacuum adiabatic calorimetry	202.17
248.84 K, Liquid, Small (less than 1 g) adiabatic calorimetry	267.47
249.1 K, Crystal, Vacuum adiabatic calorimetry	202.81
249.39 K, Liquid, Small (less than 1 g) adiabatic calorimetry	266.73
250.02 K, Crystal, Vacuum adiabatic calorimetry	203.57
250.02 K, Metastable crystal, Small (less than 1 g) adiabatic calorimetry	203.18
250.73 K, Liquid, Small (less than 1 g) adiabatic calorimetry	266.58
251.18 K, Crystal, Vacuum adiabatic calorimetry	204.9
251.4 K, Crystal, Vacuum adiabatic calorimetry	204.98
251.41 K, Liquid, Small (less than 1 g) adiabatic calorimetry	267.3
251.54 K, Crystal, Vacuum adiabatic calorimetry	205.96
252.37 K, Metastable crystal, Small (less than 1 g) adiabatic calorimetry	205.32
252.77 K, Crystal, Vacuum adiabatic calorimetry	206.43
252.83 K, Liquid, Small (less than 1 g) adiabatic calorimetry	267.16
253.26 K, Crystal, Vacuum adiabatic calorimetry	207.11
253.43 K, Liquid, Small (less than 1 g) adiabatic calorimetry	267.81
254.71 K, Metastable crystal, Small (less than 1 g) adiabatic calorimetry	207.8
254.93 K, Liquid, Small (less than 1 g) adiabatic calorimetry	267.63
255.35 K, Crystal, Vacuum adiabatic calorimetry	209.48
255.45 K, Liquid, Small (less than 1 g) adiabatic calorimetry	268.35
257.03 K, Liquid, Small (less than 1 g) adiabatic calorimetry	268.27
257.05 K, Metastable crystal, Small (less than 1 g) adiabatic calorimetry	210.12
257.43 K, Crystal, Vacuum adiabatic calorimetry	211.8
257.47 K, Liquid, Small (less than 1 g) adiabatic calorimetry	268.84
259.14 K, Liquid, Small (less than 1 g) adiabatic calorimetry	268.9
259.38 K, Metastable crystal, Small (less than 1 g) adiabatic calorimetry	212.62
259.49 K, Liquid, Small (less than 1 g) adiabatic calorimetry	269.39
259.52 K, Crystal, Vacuum adiabatic calorimetry	214.55
260.55 K, Crystal, Vacuum adiabatic calorimetry	216.79
261.24 K, Liquid, Small (less than 1 g) adiabatic calorimetry	269.33
261.52 K, Liquid, Small (less than 1 g) adiabatic calorimetry	269.97
261.6 K, Crystal, Vacuum adiabatic calorimetry	217.5
261.65 K, Liquid, Small (less than 1 g) adiabatic calorimetry	270.17
261.69 K, Metastable crystal, Small (less than 1 g) adiabatic calorimetry	215.45
263.34 K, Liquid, Small (less than 1 g) adiabatic calorimetry	269.95
263.54 K, Liquid, Small (less than 1 g) adiabatic calorimetry	270.5
263.69 K, Crystal, Vacuum adiabatic calorimetry	220.52
263.7 K, Liquid, Small (less than 1 g) adiabatic calorimetry	270.42
264 K, Metastable crystal, Small (less than 1 g) adiabatic calorimetry	218.39
265.44 K, Liquid, Small (less than 1 g) adiabatic calorimetry	270.58
265.56 K, Liquid, Small (less than 1 g) adiabatic calorimetry	271.1
265.73 K, Liquid, Small (less than 1 g) adiabatic calorimetry	270.91
265.77 K, Crystal, Vacuum adiabatic calorimetry	223.78
266.29 K, Metastable crystal, Small (less than 1 g) adiabatic calorimetry	221.46
267.55 K, Liquid, Small (less than 1 g) adiabatic calorimetry	271.24
267.58 K, Liquid, Small (less than 1 g) adiabatic calorimetry	271.73
267.75 K, Liquid, Small (less than 1 g) adiabatic calorimetry	271.67
267.85 K, Crystal, Vacuum adiabatic calorimetry	227.51
268.56 K, Metastable crystal, Small (less than 1 g) adiabatic calorimetry	224.85
269.36 K, Crystal, Vacuum adiabatic calorimetry	231.51
269.61 K, Liquid, Small (less than 1 g) adiabatic calorimetry	272.26
269.67 K, Liquid, Small (less than 1 g) adiabatic calorimetry	271.61
269.77 K, Liquid, Small (less than 1 g) adiabatic calorimetry	272.2
269.93 K, Crystal, Vacuum adiabatic calorimetry	231.49
270.71 K, Metastable crystal, Small (less than 1 g) adiabatic calorimetry	224.7
270.82 K, Metastable crystal, Small (less than 1 g) adiabatic calorimetry	229.03
271.87 K, Liquid, Small (less than 1 g) adiabatic calorimetry	272.35
272 K, Crystal, Vacuum adiabatic calorimetry	235.92
272.05 K, Liquid, Small (less than 1 g) adiabatic calorimetry	273.02
273.43 K, Metastable crystal, Small (less than 1 g) adiabatic calorimetry	235.43
273.97 K, Liquid, Small (less than 1 g) adiabatic calorimetry	272.86
274.08 K, Crystal, Vacuum adiabatic calorimetry	241.07
274.59 K, Liquid, Small (less than 1 g) adiabatic calorimetry	273.93
275.18 K, Metastable crystal, Small (less than 1 g) adiabatic calorimetry	235.92
276.07 K, Liquid, Small (less than 1 g) adiabatic calorimetry	273.68
276.15 K, Crystal, Vacuum adiabatic calorimetry	246.77
276.27 K, Metastable crystal, Small (less than 1 g) adiabatic calorimetry	241.56
277.13 K, Liquid, Small (less than 1 g) adiabatic calorimetry	274.62
277.85 K, Crystal, Vacuum adiabatic calorimetry	253.97
278.17 K, Liquid, Small (less than 1 g) adiabatic calorimetry	274.27
278.22 K, Crystal, Vacuum adiabatic calorimetry	253.72
279.07 K, Metastable crystal, Small (less than 1 g) adiabatic calorimetry	249.25
279.67 K, Liquid, Small (less than 1 g) adiabatic calorimetry	275.3
280.27 K, Liquid, Small (less than 1 g) adiabatic calorimetry	274.91
281.68 K, Metastable crystal, Small (less than 1 g) adiabatic calorimetry	255.47
281.81 K, Metastable crystal, Small (less than 1 g) adiabatic calorimetry	258.32
282.22 K, Liquid, Small (less than 1 g) adiabatic calorimetry	276.12
282.37 K, Liquid, Small (less than 1 g) adiabatic calorimetry	275.55
284.47 K, Liquid, Small (less than 1 g) adiabatic calorimetry	276.33
284.5 K, Metastable crystal, Small (less than 1 g) adiabatic calorimetry	269.64
284.76 K, Liquid, Small (less than 1 g) adiabatic calorimetry	277
286.57 K, Liquid, Small (less than 1 g) adiabatic calorimetry	276.88
287.11 K, Metastable crystal, Small (less than 1 g) adiabatic calorimetry	284.18
287.31 K, Liquid, Small (less than 1 g) adiabatic calorimetry	277.78
287.83 K, Metastable crystal, Small (less than 1 g) adiabatic calorimetry	291.75
288.67 K, Liquid, Small (less than 1 g) adiabatic calorimetry	277.6
289.86 K, Liquid, Small (less than 1 g) adiabatic calorimetry	278.56
290.76 K, Liquid, Small (less than 1 g) adiabatic calorimetry	278.25
292.42 K, Liquid, Small (less than 1 g) adiabatic calorimetry	279.52
292.85 K, Liquid, Small (less than 1 g) adiabatic calorimetry	278.99
294.97 K, Liquid, Small (less than 1 g) adiabatic calorimetry	280.39
297.52 K, Liquid, Small (less than 1 g) adiabatic calorimetry	281.17
300.09 K, Liquid, Small (less than 1 g) adiabatic calorimetry	282.13
302.65 K, Liquid, Small (less than 1 g) adiabatic calorimetry	282.97
305.21 K, Liquid, Small (less than 1 g) adiabatic calorimetry	283.79
307.77 K, Liquid, Small (less than 1 g) adiabatic calorimetry	284.73
310.34 K, Liquid, Small (less than 1 g) adiabatic calorimetry	285.68
312.44 K, Liquid, Small (less than 1 g) adiabatic calorimetry	286.13
315.01 K, Liquid, Small (less than 1 g) adiabatic calorimetry	287.07
317.56 K, Liquid, Small (less than 1 g) adiabatic calorimetry	287.97
320.1 K, Liquid, Small (less than 1 g) adiabatic calorimetry	288.9
322.63 K, Liquid, Small (less than 1 g) adiabatic calorimetry	289.74
325.17 K, Liquid, Small (less than 1 g) adiabatic calorimetry	290.68
327.71 K, Liquid, Small (less than 1 g) adiabatic calorimetry	291.56
330.24 K, Liquid, Small (less than 1 g) adiabatic calorimetry	292.55
332.78 K, Liquid, Small (less than 1 g) adiabatic calorimetry	293.41
335.3 K, Liquid, Small (less than 1 g) adiabatic calorimetry	294.48
337.83 K, Liquid, Small (less than 1 g) adiabatic calorimetry	295.38
340.36 K, Liquid, Small (less than 1 g) adiabatic calorimetry	295.97
342.88 K, Liquid, Small (less than 1 g) adiabatic calorimetry	296.86
345.4 K, Liquid, Small (less than 1 g) adiabatic calorimetry	297.86
347.92 K, Liquid, Small (less than 1 g) adiabatic calorimetry	298.8
350.44 K, Liquid, Small (less than 1 g) adiabatic calorimetry	299.62
352.95 K, Liquid, Small (less than 1 g) adiabatic calorimetry	300.4
355.46 K, Liquid, Small (less than 1 g) adiabatic calorimetry	301.37
357.97 K, Liquid, Small (less than 1 g) adiabatic calorimetry	302.27
359.15 K, Liquid, Small (less than 1 g) adiabatic calorimetry	302.7
360.47 K, Liquid, Small (less than 1 g) adiabatic calorimetry	303.23
361.69 K, Liquid, Small (less than 1 g) adiabatic calorimetry	304.73
362.97 K, Liquid, Small (less than 1 g) adiabatic calorimetry	304.73
364.23 K, Liquid, Small (less than 1 g) adiabatic calorimetry	305.78
366.73 K, Liquid, Small (less than 1 g) adiabatic calorimetry	305.51
